Data reported in patent US20200009185A1, “METHOD FOR MAINTAINING INCREASED […] p53 LEVEL, INDUCED BY […]-BASED […] DRUG, AND APPLICATION THEREOF” (priority 2015, published 2020).

Tests used:
[1] = test system: human cervical cancer cells; test: Tumor growth in animal model transplanted with human cervical cancer cells; assay type: in vivo; details: low concentration of cisplatin
[2] = test system: Hela cells; test: WST cell viability analysis (Example 1-2); assay type: cell-based, human; details: Hela cells transformed with HPV E6/E7 siRNA, 10 μM cisplatin 24 hours, vs group not treated with cisplatin; FIG. 1B
Protocol: (§1) WST analysis was performed to confirm cell viability.
(§2) Cell counts were determined by water soluble tetrazolium salts (WST) (EZ-Cytox kit; Daeil Lab Service, Seoul, Korea). EZ-Cytox solution (50 μl) added to each well of a 12-well plate and incubated for 2 to 3 hours. Live cells were measured (485 nm) using a GENios Pro microplate reader (Tecan Trading AG, Mannedorf, Switzerland) in a 96-well plate.

[3] = test system: CaSki cells; test: WST cell viability analysis (Example 1-2); assay type: cell-based, human; details: CaSki cells transformed with HPV E6/E7 siRNA, 10 μM cisplatin 24 hours, vs group not treated with cisplatin; FIG. 1B
Protocol: as §1, §2

[4] = test system: Hela cells; test: TP53 and E2F luciferase reporter assay (Example 1-3); assay type: cell-based, human; details: Hela cells treated with cisplatin and HPV E6/E7 siRNA; FIG. 1C
Protocol: (§3) The above luciferase reporter vector system was purchased from Clontech pathway profiling system (Mountain View, Calif., USA). Luciferase assay was performed using Dual-Luciferase Reporter Assay System (Promega) after 24 hours of transfection, and luminescence activity was measured using a GENios Pro microplate reader (Tecan Trading AG, Mannedorf, Switzerland).

[5] = test system: CaSki cells; test: as above; assay type: cell-based, human; details: CaSki cells treated with cisplatin and HPV E6/E7 siRNA; FIG. 1C
Protocol: as §3

[6] = test system: Hela cells; test: Western blot of TP53, RB, E6, E7 at time points (Example 1-4); assay type: cell-based, human; details: Hela cells transformed with HPV E6/E7 siRNA then treated with cisplatin; FIG. 1D, 1E
Text: (§4) Cell lysates were then obtained and subjected to western blotting.
(§5) In western blotting, antibodies of Santa Cruz Biotechnology ([…], Calif.) were used for TP53 [DO7], HPV 18-E6 [G7], HPV 16-E6 [C1P5], HPV 18-E7 [F7], HPV 16-E7 [ED17], E2F-1 [KH195], Cyclin-E [M20], β-Actin [C4] and antibody of BD Pharmingen was used for RB [554164], antibody of cell signaling was used for phospho-TP53 (ser-15) [9284].

[7] = test system: CaSki cells; test: as above; assay type: cell-based, human; details: CaSki cells transformed with HPV E6/E7 siRNA then treated with cisplatin; FIG. 1D, 1E
Text: as §4, §5

[8] = test system: CaSki cells; test: Western blot of TP53 and HPV E6/E7 after HPV E6/E7 siRNA and cisplatin (Example 1-1); assay type: cell-based, human; details: CaSki cells transformed with HPV E6/E7 siRNA, 10 μM cisplatin for 24 hours; FIG. 1A
[9] = test system: Hela cells; test: as above; assay type: cell-based, human; details: Hela cells transformed with HPV E6/E7 siRNA, 10 μM cisplatin for 24 hours; FIG. 1A
Protocol: Cervical cancer cell and HeLa cervical cancer cell lines (HeLa; ATCC CCL-2) infected with HPV type 18 virus and SiHa cervical cancer cell lines (SiHa; ATCC HTB-35) infected with HPV type 16 virus were plated on a 6-well plate with 5×10^4 or 1×10^5 cells and cultured in RPMI 1640 or DMEM medium for 24 hours at 37° C. and 5% carbon dioxide, respectively. siRNA intracellular transfection was performed with DharmaFect (Dharmacon, Lafayette, Colo., USA) according to manufacturer's instructions.
HeLa cervical carcinoma cells infected with HPV type 18 virus were transformed by pooling with each of siRNAs of 426 and 450 sequences, or respectively. The HPV type 16 virus-infected siHa cell line was transformed by pooling siRNAs of 366, 448 and 497 sequences, or respectively.
In the Western blot, whole-cell lysate was extracted with RIPA buffer (10 mM Tris ([…]), 0.15 M NaCl, 5 mM EDTA, 1% Triton X-100, 0.5% deoxycholic acid sodium salt and 0.1% SDS). After centrifugation, the protein concentration of the supernatant was measured using a BCA protein assay kit (Thermo Fisher Scientific Inc). Protein samples were placed in sample buffer and boiled for 5 minutes for complete denaturation. The samples were then applied to 6%, 10%, or 15% polyacrylamide gels and transferred to a 0.4 μm PVDF membrane (Milipore, Bilerica). […] Finally, the expression level of the protein was detected using ECL solution. […]

[10] = test system: cervical cancer cell lines; test: Expression level of intracellular p53 over time in cervical cancer cell lines; assay type: cell-based

N.N.[Cl][Pt][Cl] [cisplatin, cis-diamminedichloroplatinum [II]]
tumor growth inhibitory effect [1]: no tumor growth inhibitory effect | cell viability [2]: decreased | cell viability [3]: decreased | activity of E2F (luciferase reporter) [4]: further decrease | activity of TP53 (luciferase reporter) [4]: increase | activity of E2F (luciferase reporter) [5]: further decrease | activity of TP53 (luciferase reporter) [5]: increase | expression level of TP53 [6]: increased | expression level of pRB [6]: increased | expression levels of 18-E6 and 18-E7 [6]: decreased | expression level of TP53 [7]: increased | expression level of pRB [7]: increased | expression levels of 16-E6 and 16-E7 [7]: decreased | amount of HPV E6/E7 protein expression [8]: not observed | amount of TP53 expression [8]: increased | amount of HPV E6/E7 protein expression [9]: not observed | amount of TP53 expression [9]: increased | expression level of intracellular p53 [10]: in the form of a pulse and repeatedly increased and decreased
